Target: T1, ALK (baculovirus expressed human ALK kinase domain F1098-K1410) (Homo sapiens, UniProt Q9UM73)
T1 construct: baculovirus expressed human ALK kinase domain F1098-K1410; made in house
Assay: Luciferase-Coupled Chemiluminescent Kinase assay (LCCA), ALK biochemical activity
Settings: inhibition of ALK; mean values; 1 μM ATP, 4 μM poly-AEKY, 12 nM ALK, 2 hours ambient temperature
In short: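 Luciferase-coupled readout of ATP remaining after reaction of 12 nM ALK kinase domain with 1 μM ATP and 4 μM poly-AEKY, Tris-HCl pH 7.5 buffer with MgCl2 and MnCl2. Incubated 2 h at ambient temperature; inhibition derived from ATP consumption across serial compound dilutions.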

T1 sequence (Q9UM73 1098-1410): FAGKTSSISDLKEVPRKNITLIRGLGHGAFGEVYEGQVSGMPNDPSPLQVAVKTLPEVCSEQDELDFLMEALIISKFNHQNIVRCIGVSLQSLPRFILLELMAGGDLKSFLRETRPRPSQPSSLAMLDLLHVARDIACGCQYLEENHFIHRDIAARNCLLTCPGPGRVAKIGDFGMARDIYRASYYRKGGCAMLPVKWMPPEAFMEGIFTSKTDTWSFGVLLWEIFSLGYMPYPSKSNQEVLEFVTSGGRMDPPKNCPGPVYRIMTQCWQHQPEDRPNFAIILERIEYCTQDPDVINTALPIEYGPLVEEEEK

| IC50 | Compound |
| --- | --- |
| ≤ 99 nM | COc1c(OCCCN2CCCC2)cc(F)c2c(-c3ccc(O)c(Cl)c3)nc3[nH]nc(C)c3c12 [Example 224, 2-chloro-4-{6-fluoro-1-methyl-9-(methyloxy)-8-[(3-pyrrolidin-1-ylpropyl)oxy]-3H-pyrazolo[3,4-c]isoquinolin-5-yl}phenol] |
| ≤ 99 nM | COc1c(OCCCN2CCCCC2)cc(F)c2c(-c3ccc(O)c(Cl)c3)nc3[nH]nc(C)c3c12 [Example 225, 2-chloro-4-{6-fluoro-1-methyl-9-(methyloxy)-8-[(3-piperidin-1-ylpropyl)oxy]-3H-pyrazolo[3,4-c]isoquinolin-5-yl}phenol] |
| ≤ 99 nM | COc1c(OCCCN2CCOCC2)cc(F)c2c(-c3ccc(O)c(Cl)c3)nc3[nH]nc(C)c3c12 [Example 226, 2-chloro-4-{6-fluoro-1-methyl-9-(methyloxy)-8-[(3-morpholin-4-ylpropyl)oxy]-3H-pyrazolo[3,4-c]isoquinolin-5-yl}phenol] |
| ≤ 99 nM | COc1c(OCCN2CCC(N3CCCC3)CC2)cc(F)c2c(-c3ccc(O)c(Cl)c3)nc3[nH]nc(C)c3c12 [Example 233, 2-chloro-4-(6-fluoro-1-methyl-9-(methyloxy)-8-{[2-(4-pyrrolidin-1-ylpiperidin-1-yl)ethyl]oxy}-3H-pyrazolo[3,4-c]isoquinolin-5-yl)phenol] |
| ≤ 99 nM | COc1c(OCCN2CCC(N3CCCCC3)CC2)cc(F)c2c(-c3ccc(O)c(Cl)c3)nc3[nH]nc(C)c3c12 [Example 236, 4-[8-{[2-(1,4′-bipiperidin-1′-yl)ethyl]oxy}-6-fluoro-1-methyl-9-(methyloxy)-3H-pyrazolo[3,4-c]isoquinolin-5-yl]-2-chlorophenol] |
| ≤ 99 nM | COc1c(OCCN2CCCN(C)CC2)cc(F)c2c(-c3ccc(O)c(Cl)c3)nc3[nH]nc(C)c3c12 [Example 237, 2-chloro-4-[6-fluoro-1-methyl-8-{[2-(4-methyl-1,4-diazepan-1-yl)ethyl]oxy}-9-(methyloxy)-3H-pyrazolo[3,4-c]isoquinolin-5-yl]phenol] |
| ≤ 99 nM | COc1c(OCCN2CCSCC2)cc(F)c2c(-c3ccc(O)c(Cl)c3)nc3[nH]nc(C)c3c12 [Example 240, 2-chloro-4-{6-fluoro-1-methyl-9-(methyloxy)-8-[(2-thiomorpholin-4-ylethyl)oxy]-3H-pyrazolo[3,4-c]isoquinolin-5-yl}phenol] |
| ≤ 99 nM | COc1c(OCCN2CCCCC2)cc(F)c2c(-c3ccc(O)c(Cl)c3)nc3[nH]nc(C)c3c12 [Example 245, 2-chloro-4-{6-fluoro-1-methyl-9-(methyloxy)-8-[(2-piperidin-1-ylethyl)oxy]-3H-pyrazolo[3,4-c]isoquinolin-5-yl}phenol] |

Continued, compound first:

| Compound | IC50 |
| --- | --- |
| COc1c(OCCN(C)CCN(C)C)cc(F)c2c(-c3ccc(O)c(Cl)c3)nc3[nH]nc(C)c3c12 [Example 227, 2-chloro-4-[8-({2-[[2-(dimethylamino)ethyl](methyl)amino]ethyl}oxy)-6-fluoro-1-methyl-9-(methyloxy)-3H-pyrazolo[3,4-c]isoquinolin-5-yl]phenol] | ≤ 99 nM |
| CCN(CC)CCN(C)CCOc1cc(F)c2c(-c3ccc(O)c(Cl)c3)nc3[nH]nc(C)c3c2c1OC [Example 228, 2-chloro-4-[8-({2-[[2-(diethylamino)ethyl](methyl)amino]ethyl}oxy)-6-fluoro-1-methyl-9-(methyloxy)-3H-pyrazolo[3,4-c]isoquinolin-5-yl]phenol] | ≤ 99 nM |
| CCN(CCOc1cc(F)c2c(-c3ccc(O)c(Cl)c3)nc3[nH]nc(C)c3c2c1OC)CCN(C)C [Example 229, 2-chloro-4-[8-({2-[[2-(dimethylamino)ethyl](ethyl)amino]ethyl}oxy)-6-fluoro-1-methyl-9-(methyloxy)-3H-pyrazolo[3,4-c]isoquinolin-5-yl]phenol] | ≤ 99 nM |
| COc1c(OCCN(CCCN(C)C)CCCN(C)C)cc(F)c2c(-c3ccc(O)c(Cl)c3)nc3[nH]nc(C)c3c12 [Example 230, 4-[8-[(2-{bis[3-(dimethylamino)propyl]amino}ethyl)oxy]-6-fluoro-1-methyl-9-(methyloxy)-3H-pyrazolo[3,4-c]isoquinolin-5-yl]-2-chlorophenol] | ≤ 99 nM |
| COc1c(OCCN(C)C2CCN(C)C2)cc(F)c2c(-c3ccc(O)c(Cl)c3)nc3[nH]nc(C)c3c12 (stereo not shown) [Example 231, 2-chloro-4-[6-fluoro-1-methyl-8-({2-[methyl(1-methylpyrrolidin-3-yl)amino]ethyl}oxy)-9-(methyloxy)-3H-pyrazolo[3,4-c]isoquinolin-5-yl]phenol] | ≤ 99 nM |
| COC[C@@H]1CCCN1CCOc1cc(F)c2c(-c3ccc(O)c(Cl)c3)nc3[nH]nc(C)c3c2c1OC [Example 232, 2-chloro-4-{6-fluoro-1-methyl-9-(methyloxy)-8-[(2-{(2S)-2-[(methyloxy)methyl]pyrrolidin-1-yl}ethyl)oxy]-3H-pyrazolo[3,4-c]isoquinolin-5-yl}phenol] | ≤ 99 nM |
| COc1c(OCCN2CCN(C3CCCCC3)CC2)cc(F)c2c(-c3ccc(O)c(Cl)c3)nc3[nH]nc(C)c3c12 [Example 234, 2-chloro-4-[8-{[2-(4-cyclohexylpiperazin-1-yl)ethyl]oxy}-6-fluoro-1-methyl-9-(methyloxy)-3H-pyrazolo[3,4-c]isoquinolin-5-yl]phenol] | ≤ 99 nM |
| COc1c(OCCN2CCN(CC(=O)NC(C)C)CC2)cc(F)c2c(-c3ccc(O)c(Cl)c3)nc3[nH]nc(C)c3c12 [Example 235, 2-[4-(2-{[5-(3-chloro-4-hydroxyphenyl)-6-fluoro-1-methyl-9-(methyloxy)-3H-pyrazolo[3,4-c]isoquinolin-8-yl]oxy}ethyl)piperazin-1-yl]-N-(1-methylethyl)acetamide] | ≤ 99 nM |
| COc1c(OCCN2CCN(c3ccccn3)CC2)cc(F)c2c(-c3ccc(O)c(Cl)c3)nc3[nH]nc(C)c3c12 [Example 238, 2-chloro-4-(6-fluoro-1-methyl-9-(methyloxy)-8-{[2-(4-pyridin-2-ylpiperazin-1-yl)ethyl]oxy}-3H-pyrazolo[3,4-c]isoquinolin-5-yl)phenol] | ≤ 99 nM |
| COc1c(OCCN2CC(C)OC(C)C2)cc(F)c2c(-c3ccc(O)c(Cl)c3)nc3[nH]nc(C)c3c12 (stereo not shown) [Example 239, 2-chloro-4-[8-{[2-(2,6-dimethylmorpholin-4-yl)ethyl]oxy}-6-fluoro-1-methyl-9-(methyloxy)-3H-pyrazolo[3,4-c]isoquinolin-5-yl]phenol] | ≤ 99 nM |
| COc1c(OCCN2C(C)CCCC2C)cc(F)c2c(-c3ccc(O)c(Cl)c3)nc3[nH]nc(C)c3c12 (stereo not shown) [Example 241, 2-chloro-4-[8-{[2-(2,6-dimethylpiperidin-1-yl)ethyl]oxy}-6-fluoro-1-methyl-9-(methyloxy)-3H-pyrazolo[3,4-c]isoquinolin-5-yl]phenol] | ≤ 99 nM |
| COc1c(OCCN2CCCC3CCCCC32)cc(F)c2c(-c3ccc(O)c(Cl)c3)nc3[nH]nc(C)c3c12 (stereo not shown) [Example 242, 2-chloro-4-(6-fluoro-1-methyl-9-(methyloxy)-8-{[2-(octahydroquinolin-1(2H)-yl)ethyl]oxy}-3H-pyrazolo[3,4-c]isoquinolin-5-yl)phenol] | ≤ 99 nM |
| COc1c(OCCN(C(C)C)C(C)C)cc(F)c2c(-c3ccc(O)c(Cl)c3)nc3[nH]nc(C)c3c12 [Example 243, 4-[8-({2-[bis(1-methylethyl)amino]ethyl}oxy)-6-fluoro-1-methyl-9-(methyloxy)-3H-pyrazolo[3,4-c]isoquinolin-5-yl]-2-chlorophenol] | ≤ 99 nM |
| COCCN(CCOC)CCOc1cc(F)c2c(-c3ccc(O)c(Cl)c3)nc3[nH]nc(C)c3c2c1OC [Example 244, 4-[8-[(2-{bis[2-(methyloxy)ethyl]amino}ethyl)oxy]-6-fluoro-1-methyl-9-(methyloxy)-3H-pyrazolo[3,4-c]isoquinolin-5-yl]-2-chlorophenol] | ≤ 99 nM |

Source: patent US7872014B2, “Anaplastic lymphoma kinase modulators and methods of use” (Exelixis, Inc., priority 2003, dated 2011)
